According to ChEMBL document CHEMBL3399921, “Novel 2-(2-phenalkyl)-1H-benzo[d]imidazoles as antitubercular agents. Synthesis, biological evaluation and structure-activity relationship” (Bioorg Med Chem, 2015):
Values after ≈ are worked out from the molar mass of the structure shown.

These molecules were tested on Mycobacterium tuberculosis variant bovis (assay: Tuberculostatic activity against Mycobacterium bovis by two-fold classical test-tube method).
Assay type: functional
`Nc1c(NC(=O)CCc2cc(Cl)cc(Cl)c2)cc(Cl)cc1[N+](=O)[O-]` showed an MIC of 65 µM (≈ 25.3 µg/mL).
`Cc1cc2nc(CCc3cc(Cl)cc(Cl)c3)[nH]c2cc1C` was tested, and the MIC was 19 µM (≈ 6.07 µg/mL).
`Cc1cc2nc(CCc3ccccc3)[nH]c2cc1C` showed an MIC of 6.3 µM (≈ 1.58 µg/mL).
